The numbers were not newly measured in patent US20080044468A1, “Processes For The Preparation Of Oral Dosage Formulations Of Modafinil” (priority 2002, published 2008), which cites them from elsewhere.

The conditions of the data set: background statement.

Molecules are shown by their SMILES.

Turning to `NC(=O)C[S+]([O-])C(c1ccccc1)c1ccccc1` (stereo not shown) [modafinil], the Solubility in water result is listed as “less than 1 mg/ml”.
